In brackets after ≈: the same amount, converted by molar mass.
Columns and labels:
Pseudomonas aeruginosa [1] = assay: Antibacterial activity against Pseudomonas aeruginosa PAO1 under muller hinton medium by CLSI protocol based microdilution method; type: functional
Pseudomonas aeruginosa [2] = assay: Antibacterial activity against Pseudomonas aeruginosa PAO1 under succinate minimum medium by CLSI protocol based microdilution method; type: functional
Pseudomonas aeruginosa [3] = assay: Antibacterial activity against Pseudomonas aeruginosa PAO1 under 1 uM FeCl3 medium by CLSI protocol based microdilution method; type: functional
Pseudomonas aeruginosa [4] = assay: Antibacterial activity against Pseudomonas aeruginosa PAD07 under muller hinton medium by CLSI protocol based microdilution method; type: functional
Pseudomonas aeruginosa [5] = assay: Antibacterial activity against Pseudomonas aeruginosa PAD07 under succinate minimum medium by CLSI protocol based microdilution method; type: functional
Pseudomonas aeruginosa [6] = assay: Antibacterial activity against Pseudomonas aeruginosa PAD07 under 1 uM FeCl3 medium by CLSI protocol based microdilution method; type: functional
Pseudomonas aeruginosa [7] = assay: Antibacterial activity against Pseudomonas aeruginosa AM85 under muller hinton medium by CLSI protocol based microdilution method; type: functional
Pseudomonas aeruginosa [8] = assay: Antibacterial activity against Pseudomonas aeruginosa AM85 under succinate minimum medium by CLSI protocol based microdilution method; type: functional
Pseudomonas aeruginosa [9] = assay: Antibacterial activity against Pseudomonas aeruginosa AM85 under 1 uM FeCl3 medium by CLSI protocol based microdilution method; type: functional
[10] = system: Burkholderia pseudomallei; assay: Antibacterial activity against Burkholderia pseudomallei BPS2020IRBA001 under muller hinton medium by CLSI protocol based microdilution method; type: functional
[11] = system: Burkholderia pseudomallei; assay: Antibacterial activity against Burkholderia pseudomallei BPS2020IRBA001 under succinate minimum medium by CLSI protocol based microdilution method; type: functional
[12] = system: Burkholderia pseudomallei; assay: Antibacterial activity against Burkholderia pseudomallei BPS2020IRBA001 under 1 uM FeCl3 medium by CLSI protocol based microdilution method; type: functional
[13] = system: Burkholderia pseudomallei; assay: Antibacterial activity against Burkholderia pseudomallei BPS2020IRBA002 under muller hinton medium by CLSI protocol based microdilution method; type: functional
[14] = system: Burkholderia pseudomallei; assay: Antibacterial activity against Burkholderia pseudomallei BPS2020IRBA002 under succinate minimum medium by CLSI protocol based microdilution method; type: functional
[15] = system: Burkholderia pseudomallei; assay: Antibacterial activity against Burkholderia pseudomallei BPS2020IRBA002 under 1 uM FeCl3 medium by CLSI protocol based microdilution method; type: functional
[16] = system: Burkholderia pseudomallei; assay: Antibacterial activity against Burkholderia pseudomallei K96243 under muller hinton medium by CLSI protocol based microdilution method; type: functional
[17] = system: Burkholderia pseudomallei; assay: Antibacterial activity against Burkholderia pseudomallei K96243 under succinate minimum medium by CLSI protocol based microdilution method; type: functional
[18] = system: Burkholderia pseudomallei; assay: Antibacterial activity against Burkholderia pseudomallei K96243 under 1 uM FeCl3 medium by CLSI protocol based microdilution method; type: functional
[19] = system: Burkholderia pseudomallei; assay: Antibacterial activity against Burkholderia pseudomallei BPS2020IRBA003 under muller hinton medium by CLSI protocol based microdilution method; type: functional
[20] = system: Burkholderia pseudomallei; assay: Antibacterial activity against Burkholderia pseudomallei BPS2020IRBA003 under succinate minimum medium by CLSI protocol based microdilution method; type: functional
[21] = system: Burkholderia pseudomallei; assay: Antibacterial activity against Burkholderia pseudomallei BPS2020IRBA003 under 1 uM FeCl3 medium by CLSI protocol based microdilution method; type: functional
[22] = system: Burkholderia pseudomallei; assay: Antibacterial activity against Burkholderia pseudomallei BPS2020IRBA004 under muller hinton medium by CLSI protocol based microdilution method; type: functional
[23] = system: Burkholderia pseudomallei; assay: Antibacterial activity against Burkholderia pseudomallei BPS2020IRBA005 under muller hinton medium by CLSI protocol based microdilution method; type: functional
[24] = system: Burkholderia pseudomallei; assay: Antibacterial activity against Burkholderia pseudomallei BPS2020IRBA005 under succinate minimum medium by CLSI protocol based microdilution method; type: functional
[25] = Antibacterial activity against Burkholderia pseudomallei BPS2020IRBA005 under 1 uM FeCl3 medium by CLSI protocol based microdilution method; type: functional; conditions: Burkholderia thailandensis
[26] = system: Burkholderia thailandensis; assay: Antibacterial activity against Burkholderia thailandensis E264 under muller hinton medium by CLSI protocol based microdilution method; type: functional
[27] = system: Burkholderia thailandensis; assay: Antibacterial activity against Burkholderia thailandensis E264 under succinate minimum medium by CLSI protocol based microdilution method; type: functional
[28] = system: Burkholderia thailandensis; assay: Antibacterial activity against Burkholderia thailandensis E264 under 1 uM FeCl3 medium by CLSI protocol based microdilution method; type: functional
[29] = system: Burkholderia thailandensis; assay: Antibacterial activity against Burkholderia thailandensis E264TS32C10 under muller hinton medium by CLSI protocol based microdilution method; type: functional
[30] = system: Burkholderia thailandensis; assay: Antibacterial activity against Burkholderia thailandensis E264TS32C10 under succinate minimum medium by CLSI protocol based microdilution method; type: functional
[31] = system: Burkholderia thailandensis; assay: Antibacterial activity against Burkholderia thailandensis E264TS32C10 under 1 uM FeCl3 medium by CLSI protocol based microdilution method; type: functional
[32] = system: Burkholderia thailandensis; assay: Antibacterial activity against Burkholderia thailandensis E264TS32C12 under muller hinton medium by CLSI protocol based microdilution method; type: functional
[33] = system: Burkholderia thailandensis; assay: Antibacterial activity against Burkholderia thailandensis E264TS32C12 under succinate minimum medium by CLSI protocol based microdilution method; type: functional
[34] = system: Burkholderia thailandensis; assay: Antibacterial activity against Burkholderia thailandensis E264TS32C12 under 1 uM FeCl3 medium by CLSI protocol based microdilution method; type: functional
[35] = system: Burkholderia thailandensis; assay: Antibacterial activity against Burkholderia thailandensis E264TS32C47 under muller hinton medium by CLSI protocol based microdilution method; type: functional
[36] = system: Burkholderia thailandensis; assay: Antibacterial activity against Burkholderia thailandensis E264TS32C47 under succinate minimum medium by CLSI protocol based microdilution method; type: functional
[37] = system: Burkholderia thailandensis; assay: Antibacterial activity against Burkholderia thailandensis E264TS32C47 under 1 uM FeCl3 medium by CLSI protocol based microdilution method; type: functional
HepG2 [38] = assay: Cytotoxicity against human HepG2 cells at 25 ug/ml after 48 hrs by CellTiter-Glo luminescent cell viability assay; type: toxicity, cell-based; conditions: hepg2, 48 h, dose 25 µg/ml
HepG2 [39] = assay: Cytotoxicity against human HepG2 cells at 28 ug/ml after 48 hrs by CellTiter-Glo luminescent cell viability assay; type: toxicity, cell-based; conditions: hepg2, 48 h, dose 28 µg/ml
Lipid bilayer = assay: Binding affinity to bacterial inner membrane mimic PE/PG/CL/PC (60:20:10:10) assessed as maximum insertion pressure
[40] = Stability in aqueous solution assessed as half life; type: physicochemical
[41] = system: Burkholderia pseudomallei; assay: Antibacterial activity against Burkholderia pseudomallei BPS2020IRBA005 under 1 uM FeCl3 medium after 48 hrs by CLSI protocol based microdilution method; type: functional

SMILES | MIC (Pseudomonas aeruginosa [1]) | MIC (Pseudomonas aeruginosa [2]) | MIC (Pseudomonas aeruginosa [3]) | MIC (Pseudomonas aeruginosa [4]) | MIC (Pseudomonas aeruginosa [5]) | MIC (Pseudomonas aeruginosa [6]) | MIC (Pseudomonas aeruginosa [7]) | MIC (Pseudomonas aeruginosa [8]) | MIC (Pseudomonas aeruginosa [9]) | MIC [10] | MIC [11] | MIC [13] | MIC [14] | MIC [15] | MIC [17] | MIC [18] | MIC [19] | MIC [22] | MIC [24] | MIC [26] | other results
O=C(O)c1cn(C2CC2)c2cc(N3CCN(C(=O)c4ccc(O)c(O)c4Cl)CC3)c(F)cc2c1=O | 32 µg/mL (≈ 63.8 µM) | 16 µg/mL (≈ 31.9 µM) | 16 µg/mL (≈ 31.9 µM) | 32 µg/mL (≈ 63.8 µM) | 1 µg/mL (≈ 1.99 µM) | 16 µg/mL (≈ 31.9 µM) | > 128 µg/mL | > 128 µg/mL | > 128 µg/mL | > 128 µg/mL | 128 µg/mL (≈ 255 µM) | > 128 µg/mL | > 128 µg/mL | > 128 µg/mL | 32 µg/mL (≈ 63.8 µM) | 16 µg/mL (≈ 31.9 µM) | 128 µg/mL (≈ 255 µM) | > 128 µg/mL | > 128 µg/mL | 128 µg/mL (≈ 255 µM) | MIC [12]: 128 µg/mL (≈ 255 µM); MIC [16]: 64 µg/mL (≈ 128 µM); MIC [20]: 128 µg/mL (≈ 255 µM); MIC [21]: > 128 µg/mL; MIC [23]: > 128 µg/mL; MIC [25]: > 128 µg/mL; MIC [27]: 128 µg/mL (≈ 255 µM); MIC [28]: 64 µg/mL (≈ 128 µM); MIC [29]: > 128 µg/mL; MIC [30]: > 128 µg/mL; MIC [31]: > 128 µg/mL; MIC [32]: > 128 µg/mL; MIC [33]: 128 µg/mL (≈ 255 µM); MIC [34]: 128 µg/mL (≈ 255 µM); MIC [35]: 128 µg/mL (≈ 255 µM); MIC [36]: 128 µg/mL (≈ 255 µM); MIC [37]: 128 µg/mL (≈ 255 µM); Activity (HepG2 [38]): Non-Toxic
CC(OC(=O)c1cc(=O)c(O)c[nH]1)OC(=O)N1CCN(c2cc3c(cc2F)c(=O)c(C(=O)O)cn3C2CC2)CC1 (stereo not given) | 1 µg/mL (≈ 1.8 µM) | 2 µg/mL (≈ 3.59 µM) | 2 µg/mL (≈ 3.59 µM) | 0.25 µg/mL (≈ 0.449 µM) | 0.25 µg/mL (≈ 0.449 µM) | 0.25 µg/mL (≈ 0.449 µM) | 32 µg/mL (≈ 57.5 µM) | 64 µg/mL (≈ 115 µM) | 64 µg/mL (≈ 115 µM) | 32 µg/mL (≈ 57.5 µM) | 32 µg/mL (≈ 57.5 µM) | 16 µg/mL (≈ 28.8 µM) | 16 µg/mL (≈ 28.8 µM) | 16 µg/mL (≈ 28.8 µM) | 1 µg/mL (≈ 1.8 µM) | 1 µg/mL (≈ 1.8 µM) | 2 µg/mL (≈ 3.59 µM) | 8 µg/mL (≈ 14.4 µM) | 1 µg/mL (≈ 1.8 µM) | 4 µg/mL (≈ 7.19 µM) | MIC [12]: 32 µg/mL (≈ 57.5 µM); MIC [16]: 1 µg/mL (≈ 1.8 µM); MIC [20]: 2 µg/mL (≈ 3.59 µM); MIC [21]: 4 µg/mL (≈ 7.19 µM); MIC [23]: 16 µg/mL (≈ 28.8 µM); MIC [25]: 2 µg/mL (≈ 3.59 µM); MIC [27]: 4 µg/mL (≈ 7.19 µM); MIC [28]: 4 µg/mL (≈ 7.19 µM); MIC [29]: 128 µg/mL (≈ 230 µM); MIC [30]: 32 µg/mL (≈ 57.5 µM); MIC [31]: 32 µg/mL (≈ 57.5 µM); MIC [32]: 16 µg/mL (≈ 28.8 µM); MIC [33]: 16 µg/mL (≈ 28.8 µM); MIC [34]: 8 µg/mL (≈ 14.4 µM); MIC [35]: 8 µg/mL (≈ 14.4 µM); MIC [36]: 8 µg/mL (≈ 14.4 µM); MIC [37]: 4 µg/mL (≈ 7.19 µM); Activity (HepG2 [39]): Non-Toxic; Activity (Lipid bilayer): 29.5 mN/meter; half-life [40]: 168 h
CC(C)(O/N=C(\C(=O)N[C@@H]1C(=O)N2C(C(=O)[O-])=C(C[n+]3ccccc3)CS[C@H]12)c1csc(N)n1)C(=O)O [CEFTAZIDIME] | 1 µg/mL (≈ 1.83 µM) | 0.25 µg/mL (≈ 0.457 µM) | 1 µg/mL (≈ 1.83 µM) | 1 µg/mL (≈ 1.83 µM) | 0.25 µg/mL (≈ 0.457 µM) | 1 µg/mL (≈ 1.83 µM) | 4 µg/mL (≈ 7.32 µM) | 0.25 µg/mL (≈ 0.457 µM) | 4 µg/mL (≈ 7.32 µM) | 2 µg/mL (≈ 3.66 µM) | 2 µg/mL (≈ 3.66 µM) | 128 µg/mL (≈ 234 µM) | 64 µg/mL (≈ 117 µM) | > 128 µg/mL | 8 µg/mL (≈ 14.6 µM) | 8 µg/mL (≈ 14.6 µM) | 2 µg/mL (≈ 3.66 µM) | 8 µg/mL (≈ 14.6 µM) | 8 µg/mL (≈ 14.6 µM) | 4 µg/mL (≈ 7.32 µM) | MIC [27]: 4 µg/mL (≈ 7.32 µM); MIC [28]: 4 µg/mL (≈ 7.32 µM); MIC [29]: 1 µg/mL (≈ 1.83 µM); MIC [30]: 2 µg/mL (≈ 3.66 µM); MIC [31]: 2 µg/mL (≈ 3.66 µM); MIC [32]: 4 µg/mL (≈ 7.32 µM); MIC [33]: 8 µg/mL (≈ 14.6 µM); MIC [34]: 8 µg/mL (≈ 14.6 µM); MIC [35]: 4 µg/mL (≈ 7.32 µM); MIC [36]: 4 µg/mL (≈ 7.32 µM); MIC [37]: 4 µg/mL (≈ 7.32 µM); MIC [41]: 8 µg/mL (≈ 14.6 µM)
